The values below come from patent US4009166A, “Pyrido(2,3-d) pyrimidinones” (Hisamitsu Pharmaceutical Co., Inc., priority 1974, dated 1977).

Data set [1] relates to dd-strain male mice. The note with it: deaths 72 hours after administration. As for the experimental part:
The lethal dose was estimated from the death of animals 72 hours after administration.

Data set [2] concerns carrageenin edema in Wistar-strain male rats. Nature of the data set: Anti-inflammatory effect (carrageenin edema of the hind paw). Type of data set: in vivo. The note with it: Rattus norvegicus, po, rats, edema volume 3 hours after carrageenin; for inhibition in vivo at 10 mg/kg: 10 mg/kg orally, read-out: anti-inflammatory effect dose(mg/kg) 10 (inhibition percentage of carrageenin edema); for inhibition in vivo at 50 mg/kg: 50 mg/kg orally, read-out: anti-inflammatory effect dose(mg/kg) 50 (inhibition percentage of carrageenin edema). As for the experimental part:
2. Anti-inflammatory effect
A group of five Wistar-strain male rats (100-150 g) were orally administered with each test compound suspended in 0.5% tragacanth-saline solution. After 30 minutes 0.5-1.0% carrageenin suspended in the water for injection was injected subcutaneously to a hind paw. After 3 hours the carrageenin edema was measured by volume and the inhibition percentage was determined with respect to the results for the control animals. The inhibition percentages were shown with the notations as follows: […]
Background: The carrageenan paw model is a standard test of acute inflammation.

Data set [3] deals with writhing syndrome in dd-strain male mice. Nature of the data set: Analgetic effect (acetic acid writhing syndrome). Type of data set: in vivo. The note with it: Mus musculus, ip, read-out: analgetic effect ED50 (95 % C.L.), i.p. Background: An intraperitoneal irritant provokes the stretching counted in writhing tests.
For data set [4] the test system is unchanged. Nature of the data set: Analgetic effect (acetic acid writhing syndrome). The data set is classed as in vivo. The note with it: Mus musculus, po, orally, 0.6% acetic acid writhing, Litchfield-Wilcoxon, read-out: analgetic effect ED50 (95 % C.L.). As for the experimental part: 3. Analgetic effect Each test compound suspended in 0.5% tragacanth-saline solution was orally administered to dd-strain male mice (18-20 g). After one hour 0.6% acetic acid solution was intraperitoneally injected in a volume of 0.1 ml/10 g.

Data set [5] relates to righting reflex of dd-strain male mice. Nature of the data set: Central nervous system depressive effect (disappearance of righting reflex). The data set is classed as in vivo. The note with it: Mus musculus, ip; intraperitoneally, mice; read-out: C N S depressive effect (dose required for the disappearance of righting reflex). As for the experimental part:
4. Central nervous system depressive effect
Each test compound suspended in 0.5% tragacanth-saline solution was injected intraperitoneally to dd-strain male mice (16-24 g). The disappearance of righting reflex was observed under noiseless circumstances. The dose required for the disappearance of righting reflex is indicated with the following notations: […]

The structures appear in SMILES notation. Where two headings read alike, the source gives them in different places. Bounds are passed on as bounds.

Broadly, the ED50 is the midpoint of the dose-response relation. Take `Cc1c(N(C)C)c(=O)n(-c2ccccc2)n1C` [aminopyrine, reference compound]: the “acute toxicity i.p. (lethal dose)” value in data set [1] is 100 to 300 mg/kg. Besides, in data set [2], the inhibition in vivo at 10 mg/kg was below 15% and the inhibition in vivo at 50 mg/kg is below 15%. In addition, in data set [3], the ED50 is 56 mg/kg.

Turning to `CCN1CN(c2cccc([N+](=O)[O-])c2)c2ncccc2C1=O` [drawing 123/C2 H5], in data set [1], the “acute toxicity i.p. (lethal dose)” value amounted to 1000 mg/kg and the “acute toxicity p.o. (lethal dose)” value is on record as 2000 mg/kg. For the same molecule, in data set [2], the inhibition in vivo at 10 mg/kg was 31 to 45% and the inhibition in vivo at 50 mg/kg was above 61%. Moreover, the ED50 in data set [4] worked out at 1.95 mg/kg. In addition, the minimal effective dose in data set [5] is 30 to 100 mg/kg.

For the molecule `CN1CN(c2cccc([N+](=O)[O-])c2)c2ncccc2C1=O` [drawing 123/CH3, 1-(m-nitrophenyl)-3-methyl-4-oxo-1,2,3,4-tetrahydropyrido[2,3-d]pyrimidine], the “acute toxicity i.p. (lethal dose)” value in data set [1] is recorded as above 1000 mg/kg. For the same molecule, in data set [2], the inhibition in vivo at 10 mg/kg was below 15% and the inhibition in vivo at 50 mg/kg was in the range of 16 to 30%. In addition, in data set [4], the ED50 was determined as 22 mg/kg. Moreover, in data set [5], the minimal effective dose was above 1000 mg/kg.

As for `CCN1Cc2cccnc2N(c2ccccc2)C1=O` [drawing 126/C2 H5], the “acute toxicity i.p. (lethal dose)” value in data set [1] is reported as 300 mg/kg. For the same molecule, in data set [2], the inhibition in vivo at 10 mg/kg lay within 46 to 60% and the inhibition in vivo at 50 mg/kg lay within 46 to 60%. The ED50 in data set [4] was determined as 2.1 mg/kg. Besides, the minimal effective dose in data set [5] is 3 to 10 mg/kg.

Regarding `CCN1Cc2cccnc2N(c2cccc(Br)c2)C1=O` [drawing 134/C2 H5], the “acute toxicity i.p. (lethal dose)” value in data set [1] was 100 300 mg/kg. In addition, in data set [2], the inhibition in vivo at 10 mg/kg was in the range of 46 to 60% and the inhibition in vivo at 50 mg/kg was 46 to 60%. In data set [4], the ED50 is 2.85 mg/kg. Besides, the minimal effective dose in data set [5] was below 3 mg/kg.

Consider `CCCN1Cc2cccnc2N(c2cccc(Br)c2)C1=O` [drawing 134/CH2 CH2 CH3], for which the “acute toxicity p.o. (lethal dose)” value in data set [1] is given as below 2000 mg/kg. In addition, in data set [2], the inhibition in vivo at 10 mg/kg is 46 to 60% and the inhibition in vivo at 50 mg/kg was 46 to 60%. In addition, the median effective dose (ED50) in data set [4] was determined as 2.65 mg/kg. Further, in data set [5], the minimal effective dose lay within 3 to 10 mg/kg.

Regarding `O=C1N(CCO)Cc2cccnc2N1c1cccc(C(F)(F)F)c1` [drawing 135/CH2 CH2 OH], in data set [1], the “acute toxicity i.p. (lethal dose)” value is given as above 1000 mg/kg and the “acute toxicity p.o. (lethal dose)” value is on record as above 2000 mg/kg. Besides, the inhibition in vivo at 50 mg/kg in data set [2] fell in the range of 16 to 30%. The ED50 in data set [4] turned out to be 55 mg/kg. For the same molecule, the minimal effective dose in data set [5] is above 1000 mg/kg.

As for `CN1Cc2cccnc2N(c2cccc(C(F)(F)F)c2)C1=O` [drawing 135/CH3, 1-(m-trifluoromethylphenyl)-3-methyl-2-oxo-1,2,3,4-tetrahydropyrido[2,3-d]pyrimidine], in data set [1], the “acute toxicity p.o. (lethal dose)” value was below 500 mg/kg. In data set [2], the inhibition in vivo at 10 mg/kg is 16 to 30% and the inhibition in vivo at 50 mg/kg fell in the range of 46 to 60%. Moreover, the ED50 in data set [4] was determined as 6.6 mg/kg. For the same molecule, in data set [5], the minimal effective dose lay in the range of 3 to 10 mg/kg.

As to `O=C(O)c1ccccc1Nc1cccc(C(F)(F)F)c1` [flufenamic acid, reference compound], the “acute toxicity i.p. (lethal dose)” value in data set [1] fell in the range of 300 to 1000 mg/kg. In data set [2], the inhibition in vivo at 10 mg/kg is below 15% and the inhibition in vivo at 50 mg/kg lay in the range of 16 to 30%. Moreover, in data set [4], the median effective dose (ED50) came to 180 mg/kg. For the same molecule, the minimal effective dose in data set [5] was above 1000 mg/kg.
